How the values were obtained:
Assay in all cases: radiometric filter-binding kinase assay, Kinase HotSpot
CDK9 CCNK (human) = CDK9 CCNK (human) (UniProt O75909+P50750); conditions: compound 0.5 µM
CDK6 CCND1 (human) = CDK6 CCND1 (human) (UniProt Q00534+P24385); conditions: compound 0.5 µM
PHKG1 (human) = PHKG1 (human) (UniProt Q16816); conditions: compound 0.5 µM; ATP 10 µM
CDK1 CCNB1 (human) = CDK1 CCNB1 (human) (UniProt P06493+P14635); conditions: compound 0.5 µM
PRKCZ (human) = PRKCZ (human) (UniProt Q05513); conditions: compound 0.5 µM; ATP 10 µM
CSK (human) = CSK (human) (UniProt P41240); conditions: compound 0.5 µM; ATP 10 µM
EPHA4 (human) = EPHA4 (human) (UniProt P54764); conditions: compound 0.5 µM; ATP 10 µM
EPHA4 (human), sequence (P54764 whole entry, looked up): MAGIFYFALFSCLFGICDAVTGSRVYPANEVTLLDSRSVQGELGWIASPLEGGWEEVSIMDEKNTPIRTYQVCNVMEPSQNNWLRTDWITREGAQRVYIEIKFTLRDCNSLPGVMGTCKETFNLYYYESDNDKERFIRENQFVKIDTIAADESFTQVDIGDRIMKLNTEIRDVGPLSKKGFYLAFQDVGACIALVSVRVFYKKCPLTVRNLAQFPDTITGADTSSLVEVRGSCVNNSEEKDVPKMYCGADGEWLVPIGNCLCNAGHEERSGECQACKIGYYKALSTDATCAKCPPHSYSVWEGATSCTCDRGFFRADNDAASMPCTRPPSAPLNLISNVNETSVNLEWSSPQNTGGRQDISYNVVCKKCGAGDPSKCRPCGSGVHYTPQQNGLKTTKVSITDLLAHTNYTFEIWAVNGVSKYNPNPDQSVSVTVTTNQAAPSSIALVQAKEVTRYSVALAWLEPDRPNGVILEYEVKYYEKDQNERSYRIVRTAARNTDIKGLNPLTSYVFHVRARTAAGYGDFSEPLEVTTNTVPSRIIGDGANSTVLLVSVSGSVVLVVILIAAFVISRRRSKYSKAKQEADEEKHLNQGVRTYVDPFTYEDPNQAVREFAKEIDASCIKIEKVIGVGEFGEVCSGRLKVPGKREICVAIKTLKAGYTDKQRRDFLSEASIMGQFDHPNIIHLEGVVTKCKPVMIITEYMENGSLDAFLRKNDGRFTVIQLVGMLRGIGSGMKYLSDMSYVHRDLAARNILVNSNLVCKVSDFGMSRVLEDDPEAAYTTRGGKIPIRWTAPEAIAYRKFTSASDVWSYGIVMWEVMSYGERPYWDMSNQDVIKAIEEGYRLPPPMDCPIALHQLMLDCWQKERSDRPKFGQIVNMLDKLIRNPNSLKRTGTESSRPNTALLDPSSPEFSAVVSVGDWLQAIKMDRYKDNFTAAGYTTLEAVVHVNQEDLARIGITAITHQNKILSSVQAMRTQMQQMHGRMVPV

CAMK1G (human) = CAMK1G (human) (UniProt Q96NX5); conditions: compound 0.5 µM; ATP 10 µM
CAMK1G (human), sequence (Q96NX5 whole entry, looked up): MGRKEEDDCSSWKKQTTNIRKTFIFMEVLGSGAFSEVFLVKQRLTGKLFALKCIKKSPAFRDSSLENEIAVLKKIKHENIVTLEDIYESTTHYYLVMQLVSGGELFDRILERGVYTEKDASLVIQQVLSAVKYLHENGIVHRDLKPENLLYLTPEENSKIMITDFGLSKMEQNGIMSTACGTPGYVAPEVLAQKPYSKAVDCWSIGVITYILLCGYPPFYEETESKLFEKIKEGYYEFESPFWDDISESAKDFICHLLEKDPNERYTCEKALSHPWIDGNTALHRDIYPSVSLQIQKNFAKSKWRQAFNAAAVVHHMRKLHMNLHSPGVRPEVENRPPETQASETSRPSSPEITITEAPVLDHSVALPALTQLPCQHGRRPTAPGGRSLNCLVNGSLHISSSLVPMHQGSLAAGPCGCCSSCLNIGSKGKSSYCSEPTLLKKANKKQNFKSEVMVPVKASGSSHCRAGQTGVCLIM

MAP3K7 TAB1 (human) = MAP3K7 TAB1 (human) (UniProt O43318+Q15750); conditions: compound 0.5 µM; ATP 10 µM
DAPK1 (human) = DAPK1 (human) (UniProt P53355); conditions: compound 0.5 µM; ATP 10 µM
TEK (human) = TEK (human) (UniProt Q02763); conditions: compound 0.5 µM; ATP 10 µM
MAPK1 (human) = MAPK1 (human) (UniProt P28482); conditions: compound 0.5 µM; ATP 10 µM
MAPK1 (human), sequence (P28482 whole entry, looked up): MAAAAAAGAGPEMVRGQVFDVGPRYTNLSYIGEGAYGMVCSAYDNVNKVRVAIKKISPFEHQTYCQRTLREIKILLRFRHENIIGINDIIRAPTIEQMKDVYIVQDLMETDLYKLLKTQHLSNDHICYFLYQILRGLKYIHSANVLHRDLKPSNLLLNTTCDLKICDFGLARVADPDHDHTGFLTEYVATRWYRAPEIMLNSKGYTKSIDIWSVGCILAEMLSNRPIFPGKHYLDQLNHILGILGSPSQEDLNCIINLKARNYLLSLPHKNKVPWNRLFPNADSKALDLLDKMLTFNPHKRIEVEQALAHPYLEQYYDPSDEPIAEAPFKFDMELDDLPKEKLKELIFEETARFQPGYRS

STK33 (human) = STK33 (human) (UniProt Q9BYT3); conditions: compound 0.5 µM; ATP 10 µM
LTK (human) = LTK (human) (UniProt P29376); conditions: compound 0.5 µM; ATP 10 µM
STK17A (human) = STK17A (human) (UniProt Q9UEE5); conditions: compound 0.5 µM; ATP 10 µM
TGFBR1 (human) = TGFBR1 (human) (UniProt P36897); conditions: compound 0.5 µM; ATP 10 µM
CDK5 CDK5R1 p35 (human) = CDK5 CDK5R1 p35 (human) (UniProt Q00535+Q15078); conditions: compound 0.5 µM
PKN1 (human) = PKN1 (human) (UniProt Q16512); conditions: compound 0.5 µM; ATP 10 µM
PKN1 (human), sequence (Q16512 whole entry, looked up): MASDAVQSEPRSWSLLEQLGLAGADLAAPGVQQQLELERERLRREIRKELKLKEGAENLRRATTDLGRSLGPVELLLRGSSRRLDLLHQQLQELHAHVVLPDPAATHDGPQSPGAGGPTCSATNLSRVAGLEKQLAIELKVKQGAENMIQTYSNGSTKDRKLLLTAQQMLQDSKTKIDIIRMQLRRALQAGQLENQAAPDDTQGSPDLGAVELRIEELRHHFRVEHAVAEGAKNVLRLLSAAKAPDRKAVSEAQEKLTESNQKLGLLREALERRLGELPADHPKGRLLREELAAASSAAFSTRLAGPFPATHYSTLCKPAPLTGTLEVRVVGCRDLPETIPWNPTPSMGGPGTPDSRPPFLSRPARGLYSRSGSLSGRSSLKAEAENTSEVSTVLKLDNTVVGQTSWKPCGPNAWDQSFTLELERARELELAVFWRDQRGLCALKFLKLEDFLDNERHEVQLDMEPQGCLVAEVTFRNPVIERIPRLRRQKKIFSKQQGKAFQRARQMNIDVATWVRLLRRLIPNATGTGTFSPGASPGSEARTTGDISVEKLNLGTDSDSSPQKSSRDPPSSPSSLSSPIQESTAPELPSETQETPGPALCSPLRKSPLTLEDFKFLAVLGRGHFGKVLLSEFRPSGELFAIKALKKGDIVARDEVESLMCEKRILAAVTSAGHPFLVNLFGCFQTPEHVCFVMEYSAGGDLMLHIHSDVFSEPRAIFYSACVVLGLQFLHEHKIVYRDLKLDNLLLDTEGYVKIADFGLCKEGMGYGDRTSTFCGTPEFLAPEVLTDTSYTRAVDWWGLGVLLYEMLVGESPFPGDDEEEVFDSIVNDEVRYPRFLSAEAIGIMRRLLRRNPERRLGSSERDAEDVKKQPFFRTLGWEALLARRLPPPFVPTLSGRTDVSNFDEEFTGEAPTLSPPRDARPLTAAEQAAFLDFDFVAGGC

MAP4K4 (human) = MAP4K4 (human) (UniProt O95819); conditions: compound 0.5 µM; ATP 10 µM
AXL (human) = AXL (human) (UniProt P30530); conditions: compound 0.5 µM; ATP 10 µM
AKT3 (human) = AKT3 (human) (UniProt Q9Y243); conditions: compound 0.5 µM; ATP 10 µM
CAMK2B (human) = CAMK2B (human) (UniProt Q13554); conditions: compound 0.5 µM; ATP 10 µM
AURKC (human) = AURKC (human) (UniProt Q9UQB9); conditions: compound 0.5 µM; ATP 10 µM
AURKC (human), sequence (Q9UQB9 whole entry, looked up): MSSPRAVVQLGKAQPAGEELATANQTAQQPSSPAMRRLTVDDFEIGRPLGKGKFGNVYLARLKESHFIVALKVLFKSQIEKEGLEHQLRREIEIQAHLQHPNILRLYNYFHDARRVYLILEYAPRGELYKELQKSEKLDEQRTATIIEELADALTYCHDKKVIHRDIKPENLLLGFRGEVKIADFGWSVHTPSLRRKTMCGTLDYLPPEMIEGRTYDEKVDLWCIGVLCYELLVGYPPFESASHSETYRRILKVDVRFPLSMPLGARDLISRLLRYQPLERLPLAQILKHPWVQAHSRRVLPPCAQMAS

TXK (human) = TXK (human) (UniProt P42681); conditions: compound 0.5 µM; ATP 10 µM
MAP3K5 (human) = MAP3K5 (human) (UniProt Q99683); conditions: compound 0.5 µM; ATP 10 µM
RPS6KB1 (human) = RPS6KB1 (human) (UniProt P23443); conditions: compound 0.5 µM; ATP 10 µM
CAMK1 (human) = CAMK1 (human) (UniProt Q14012); conditions: compound 0.5 µM; ATP 10 µM
CAMK1 (human), sequence (Q14012 whole entry, looked up): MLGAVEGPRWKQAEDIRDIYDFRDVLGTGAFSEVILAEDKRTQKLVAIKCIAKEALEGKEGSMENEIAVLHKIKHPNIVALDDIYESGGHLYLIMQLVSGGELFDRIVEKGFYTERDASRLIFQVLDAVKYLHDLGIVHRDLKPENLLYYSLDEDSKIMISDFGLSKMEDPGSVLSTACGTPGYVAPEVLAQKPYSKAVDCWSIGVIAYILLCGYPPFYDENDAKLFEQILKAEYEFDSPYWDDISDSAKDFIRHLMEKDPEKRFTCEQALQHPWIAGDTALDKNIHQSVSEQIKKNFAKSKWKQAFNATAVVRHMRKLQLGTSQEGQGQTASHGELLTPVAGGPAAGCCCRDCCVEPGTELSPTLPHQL

RAF1 (human) = RAF1 (human) (UniProt P04049); conditions: compound 0.5 µM; ATP 10 µM
CSNK2A2 (human) = CSNK2A2 (human) (UniProt P19784); conditions: compound 0.5 µM; ATP 10 µM
DYRK2 (human) = DYRK2 (human) (UniProt Q92630); conditions: compound 0.5 µM; ATP 10 µM
MAP3K9 (human) = MAP3K9 (human) (UniProt P80192); conditions: compound 0.5 µM; ATP 10 µM
IRAK4 (human) = IRAK4 (human) (UniProt Q9NWZ3); conditions: compound 0.5 µM; ATP 10 µM
IRAK4 (human), sequence (Q9NWZ3 whole entry, looked up): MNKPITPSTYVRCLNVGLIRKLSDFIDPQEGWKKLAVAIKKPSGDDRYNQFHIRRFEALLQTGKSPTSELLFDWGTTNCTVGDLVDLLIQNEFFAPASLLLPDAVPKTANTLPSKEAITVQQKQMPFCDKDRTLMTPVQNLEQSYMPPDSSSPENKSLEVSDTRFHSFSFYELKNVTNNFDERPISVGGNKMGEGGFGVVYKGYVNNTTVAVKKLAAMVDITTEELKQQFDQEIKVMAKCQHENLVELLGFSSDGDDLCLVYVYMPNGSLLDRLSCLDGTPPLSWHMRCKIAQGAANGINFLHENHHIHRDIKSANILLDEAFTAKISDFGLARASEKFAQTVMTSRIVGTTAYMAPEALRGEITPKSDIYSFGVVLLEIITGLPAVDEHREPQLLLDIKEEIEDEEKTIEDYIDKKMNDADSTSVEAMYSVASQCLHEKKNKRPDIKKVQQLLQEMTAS

RIPK2 (human) = RIPK2 (human) (UniProt O43353); conditions: compound 0.5 µM; ATP 10 µM
PTK2 (human) = PTK2 (human) (UniProt Q05397); conditions: compound 0.5 µM; ATP 10 µM
PIM2 (human) = PIM2 (human) (UniProt Q9P1W9); conditions: compound 0.5 µM; ATP 10 µM
PIM2 (human), sequence (Q9P1W9 whole entry, looked up): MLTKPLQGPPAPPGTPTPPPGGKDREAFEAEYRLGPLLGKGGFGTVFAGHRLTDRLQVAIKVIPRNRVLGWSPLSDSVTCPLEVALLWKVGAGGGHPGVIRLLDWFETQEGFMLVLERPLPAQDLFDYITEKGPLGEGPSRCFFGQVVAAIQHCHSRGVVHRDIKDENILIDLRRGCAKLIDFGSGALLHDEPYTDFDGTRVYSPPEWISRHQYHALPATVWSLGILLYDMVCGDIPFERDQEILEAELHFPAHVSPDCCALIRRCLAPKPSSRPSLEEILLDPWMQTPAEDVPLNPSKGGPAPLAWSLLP

BRSK2 (human) = BRSK2 (human) (UniProt Q8IWQ3); conditions: compound 0.5 µM; ATP 10 µM
RPS6KA2 KD1 KD2 (human) = RPS6KA2 KD1 KD2 (human) (UniProt Q15349); conditions: compound 0.5 µM; ATP 10 µM
CAMK2D (human) = CAMK2D (human) (UniProt Q13557); conditions: compound 0.5 µM; ATP 10 µM
MAPK3 (human) = MAPK3 (human) (UniProt P27361); conditions: compound 0.5 µM; ATP 10 µM
FES (human) = FES (human) (UniProt P07332); conditions: compound 0.5 µM; ATP 10 µM
STK4 (human) = STK4 (human) (UniProt Q13043); conditions: compound 0.5 µM; ATP 10 µM

CDK6 CCND1 (human), sequence (P24385 whole entry, looked up): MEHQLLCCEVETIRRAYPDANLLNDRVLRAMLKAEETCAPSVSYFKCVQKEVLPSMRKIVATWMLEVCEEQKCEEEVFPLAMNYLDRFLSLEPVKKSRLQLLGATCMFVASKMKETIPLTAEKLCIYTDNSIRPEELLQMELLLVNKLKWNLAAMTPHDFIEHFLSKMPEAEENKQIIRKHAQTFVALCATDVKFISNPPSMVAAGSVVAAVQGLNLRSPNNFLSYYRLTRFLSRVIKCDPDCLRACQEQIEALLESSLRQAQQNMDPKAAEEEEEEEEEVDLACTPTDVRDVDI
CDK6 CCND1 (human), sequence (Q00534 whole entry, looked up): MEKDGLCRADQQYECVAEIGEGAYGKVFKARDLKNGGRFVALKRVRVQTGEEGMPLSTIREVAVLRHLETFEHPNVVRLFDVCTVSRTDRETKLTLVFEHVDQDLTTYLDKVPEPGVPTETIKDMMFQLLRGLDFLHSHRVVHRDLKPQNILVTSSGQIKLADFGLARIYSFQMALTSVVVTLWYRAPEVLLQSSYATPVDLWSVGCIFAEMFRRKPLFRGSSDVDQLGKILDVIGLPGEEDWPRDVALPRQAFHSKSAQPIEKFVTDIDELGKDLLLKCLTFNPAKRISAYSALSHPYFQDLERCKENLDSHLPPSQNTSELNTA

## Cn1cc(/C=C2\C(=O)Nc3ccc(S(N)(=O)=O)cc32)c2ccccc21
CDK9 CCNK (human); ATP 10 µM
  residual activity: 86.8%
CDK6 CCND1 (human); ATP 10 µM
  residual activity: 82.4%
PHKG1 (human)
  residual activity: 20.6%
CDK1 CCNB1 (human); ATP 10 µM
  residual activity: 49.6%
PRKCZ (human)
  residual activity: 105%
CSK (human)
  residual activity: 89.3%
EPHA4 (human)
  residual activity: 80.5%
CAMK1G (human)
  residual activity: 89.2%
MAP3K7 TAB1 (human)
  residual activity: 48.9%
DAPK1 (human)
  residual activity: 98.9%
TEK (human)
  residual activity: 95.8%
MAPK1 (human)
  residual activity: 98.2%
STK33 (human)
  residual activity: 46.3%
LTK (human)
  residual activity: 54.5%
STK17A (human)
  residual activity: 57.5%
TGFBR1 (human)
  residual activity: 97.8%
CDK5 CDK5R1 p35 (human); ATP 10 µM
  residual activity: 55.8%
PKN1 (human)
  residual activity: 68.9%
MAP4K4 (human)
  residual activity: 22.5%
AXL (human)
  residual activity: 49.2%
AKT3 (human)
  residual activity: 97.4%
CAMK2B (human)
  residual activity: 86.5%
AURKC (human)
  residual activity: 37.1%
TXK (human)
  residual activity: 51.3%
MAP3K5 (human)
  residual activity: 53.2%
RPS6KB1 (human)
  residual activity: 44.3%
CAMK1 (human)
  residual activity: 75.7%
RAF1 (human)
  residual activity: 102%
CSNK2A2 (human)
  residual activity: 66%
DYRK2 (human)
  residual activity: 85.5%
MAP3K9 (human)
  residual activity: 28.1%
IRAK4 (human)
  residual activity: 2.98%
RIPK2 (human)
  residual activity: 74.3%
PTK2 (human)
  residual activity: 94.1%
PIM2 (human)
  residual activity: 101%
BRSK2 (human)
  residual activity: 65.5%
RPS6KA2 KD1 KD2 (human)
  residual activity: 9.26%
CAMK2D (human)
  residual activity: 66.8%
MAPK3 (human)
  residual activity: 109%
FES (human)
  residual activity: 57.4%
STK4 (human)
  residual activity: 10.7%

## O=c1[nH]c2ccccc2n1C1CCN(Cc2ccc(-c3nc4cc5[nH]cnc5cc4nc3-c3ccccc3)cc2)CC1
CDK9 CCNK (human)
  residual activity: 108%
CDK6 CCND1 (human)
  residual activity: 105%
PHKG1 (human)
  residual activity: 106%
CDK1 CCNB1 (human)
  residual activity: 85%
PRKCZ (human)
  residual activity: 102%
CSK (human)
  residual activity: 101%
EPHA4 (human)
  residual activity: 97.1%
CAMK1G (human)
  residual activity: 101%
MAP3K7 TAB1 (human)
  residual activity: 84.1%
DAPK1 (human)
  residual activity: 82.9%
TEK (human)
  residual activity: 102%
MAPK1 (human)
  residual activity: 112%
STK33 (human)
  residual activity: 89.6%
LTK (human)
  residual activity: 95.6%
STK17A (human)
  residual activity: 98.2%
TGFBR1 (human)
  residual activity: 102%
CDK5 CDK5R1 p35 (human)
  residual activity: 91.9%
PKN1 (human)
  residual activity: 90.3%
MAP4K4 (human)
  residual activity: 99.5%
AXL (human)
  residual activity: 105%
AKT3 (human)
  residual activity: 103%
CAMK2B (human)
  residual activity: 104%
AURKC (human)
  residual activity: 96%
TXK (human)
  residual activity: 104%
MAP3K5 (human)
  residual activity: 93.8%
RPS6KB1 (human)
  residual activity: 101%
CAMK1 (human)
  residual activity: 95.1%
RAF1 (human)
  residual activity: 94.7%
CSNK2A2 (human)
  residual activity: 101%
DYRK2 (human)
  residual activity: 107%
MAP3K9 (human)
  residual activity: 93.9%
IRAK4 (human)
  residual activity: 201%
RIPK2 (human)
  residual activity: 89.2%
PTK2 (human)
  residual activity: 108%
PIM2 (human)
  residual activity: 111%
BRSK2 (human)
  residual activity: 106%
RPS6KA2 KD1 KD2 (human)
  residual activity: 101%
CAMK2D (human)
  residual activity: 97.7%
MAPK3 (human)
  residual activity: 118%
FES (human)
  residual activity: 101%
STK4 (human)
  residual activity: 95.2%

## COc1cccc(-c2cc(=O)c3ccccc3o2)c1N
CDK9 CCNK (human); ATP 10 µM
  residual activity: 98.3%
CDK6 CCND1 (human); ATP 10 µM
  residual activity: 95.5%
PHKG1 (human)
  residual activity: 92.9%
CDK1 CCNB1 (human); ATP 10 µM
  residual activity: 99.8%
PRKCZ (human)
  residual activity: 99.1%
CSK (human)
  residual activity: 83.7%
EPHA4 (human)
  residual activity: 98%
CAMK1G (human)
  residual activity: 96.5%
MAP3K7 TAB1 (human)
  residual activity: 98.7%
DAPK1 (human)
  residual activity: 90.9%
TEK (human)
  residual activity: 93.1%
MAPK1 (human)
  residual activity: 97.1%
STK33 (human)
  residual activity: 98.2%
LTK (human)
  residual activity: 75.4%
STK17A (human)
  residual activity: 96.9%
TGFBR1 (human)
  residual activity: 94.7%
CDK5 CDK5R1 p35 (human); ATP 10 µM
  residual activity: 101%
PKN1 (human)
  residual activity: 102%
MAP4K4 (human)
  residual activity: 97.2%
AXL (human)
  residual activity: 127%
AKT3 (human)
  residual activity: 101%
CAMK2B (human)
  residual activity: 103%
AURKC (human)
  residual activity: 95.3%
TXK (human)
  residual activity: 94.6%
MAP3K5 (human)
  residual activity: 103%
RPS6KB1 (human)
  residual activity: 98%
CAMK1 (human)
  residual activity: 98.5%
RAF1 (human)
  residual activity: 91.5%
CSNK2A2 (human)
  residual activity: 97.7%
DYRK2 (human)
  residual activity: 92.5%
MAP3K9 (human)
  residual activity: 93.2%
IRAK4 (human)
  residual activity: 86.4%
RIPK2 (human)
  residual activity: 87.5%
PTK2 (human)
  residual activity: 98.2%
PIM2 (human)
  residual activity: 99.3%
BRSK2 (human)
  residual activity: 98%
RPS6KA2 KD1 KD2 (human)
  residual activity: 96.4%
CAMK2D (human)
  residual activity: 91.5%
MAPK3 (human)
  residual activity: 102%
FES (human)
  residual activity: 94.3%
STK4 (human)
  residual activity: 92.1%

— the kinase profiling compilation of Christmann-Franck et al. (2016)
